IC50 data for 24 molecules are collected here from patent publication US20210395256A1, “TYROSINE KINASE INHIBITORS, COMPOSITIONS AND METHODS THERE OF” (Betta Pharmaceuticals Co., Ltd., priority 2018, published 2021).

One may read the IC50 as the concentration needed to halve the response being measured.

The structures appear in SMILES notation.

Sequence of TrkA kinase (P04629 33-796): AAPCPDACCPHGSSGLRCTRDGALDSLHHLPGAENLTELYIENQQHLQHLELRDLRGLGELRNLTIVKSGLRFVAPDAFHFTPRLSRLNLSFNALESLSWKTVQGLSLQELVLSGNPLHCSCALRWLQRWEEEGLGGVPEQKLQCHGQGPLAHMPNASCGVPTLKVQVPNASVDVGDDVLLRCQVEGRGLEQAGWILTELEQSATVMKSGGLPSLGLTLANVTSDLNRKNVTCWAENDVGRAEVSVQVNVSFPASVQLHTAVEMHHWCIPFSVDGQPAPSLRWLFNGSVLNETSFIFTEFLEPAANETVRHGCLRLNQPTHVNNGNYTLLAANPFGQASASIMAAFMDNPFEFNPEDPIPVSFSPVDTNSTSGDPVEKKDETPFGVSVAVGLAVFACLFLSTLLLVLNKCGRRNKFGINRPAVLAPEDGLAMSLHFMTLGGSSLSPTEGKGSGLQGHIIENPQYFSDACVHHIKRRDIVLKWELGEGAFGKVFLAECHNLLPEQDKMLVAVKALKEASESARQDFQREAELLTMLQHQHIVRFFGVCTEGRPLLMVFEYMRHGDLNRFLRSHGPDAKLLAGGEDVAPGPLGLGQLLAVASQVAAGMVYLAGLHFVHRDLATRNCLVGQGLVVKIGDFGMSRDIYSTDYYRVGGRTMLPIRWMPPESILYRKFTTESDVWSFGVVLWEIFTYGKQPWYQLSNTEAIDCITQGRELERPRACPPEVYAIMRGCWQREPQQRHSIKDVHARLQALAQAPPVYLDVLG

One experiment deals with TrkA kinase (Homo sapiens, UniProt P04629). The experiment in a line: TrkA kinase assay (mobility shift assay). The format is biochemical. The settings on record: class symbols; read-out: Trk A Kinase IC50. The method, then:
Example 201 TrkA Kinase Assay
Mobility shift assay was used to determine the inhibitory activity of compounds against TrkA kinase. Assay procedures are as follows:
1× Kinase base buffer (50 mM HEPES, pH 7.5; 0.0015% Brij-35)
Stop buffer (100 mM HEPES, pH 7.5; 0.015% Brij-35; 0.2% Coating Reagent #3; 50 mM EDTA)
1) Dilute the compound to 50× of the final desired highest inhibitor concentration in reaction by 100% DMSO. Transfer 100 μl of this compound dilution to a well in a 96-well plate.
2) For all compounds, transfer the compound in tubes to one well on 96-well storage plate and serially dilute the compound by transferring 30 μl to 60 μl of 100% DMSO in the next well and so forth for a total of 10 concentrations.
3) Add 100 μl of 100% DMSO to two empty wells for no compound control and no enzyme control in the same 96-well plate. Mark the plate as source plate.
4) Prepare intermediate plate
Transfer 10 μl of compound from source plate to a new 96-well plate as the intermediate plate
Add 90 µl of 1× kinase buffer to each well of the intermediate plate.
Mix the compounds in intermediate plate for 10 min on shaker.
1) Transfer 5 μl of each well from the 96-well intermediate plate to a 384-well plate in duplicates. For example, A1 of the 96-well plate is transferred to A1 and A2 of the 384-well plate. A2 of the 96-well plate is transferred to A3 and A4 of the 384-well plate, and so on.
1) Prepare 2.5× enzyme solution
Add kinase in 1× kinase base buffer.
2) Prepare 2.5× peptide solution Add FAM-labeled peptide and ATP in the 1× kinase base buffer.
3) Assay plate already contains 5 μl of compound in 10% DMSO.
4) Transfer 2.5× enzyme solution to the assay plate
Add 10 μl of 2.5× enzyme solution to each well of the 384-well assay plate.
5) Incubate at room temperature for 10 min.
6) Transfer 2.5× peptide solution to the assay plate
Add 10 μl of 2.5× peptide solution to each well of the 384-well assay plate.
Kinase reaction conditions are shown as Table 11:
7) Kinase reaction and stop
Incubate at 28° C. for specified period of time.
Add 25 μl of stop buffer to stop reaction.
1) Copy conversion data from Caliper program.
2) Convert conversion values to inhibition values.
Percent inhibition=(max-conversion)/(max-min)*100.
“max” stands for DMSO control; “min” stands for low control.
3) Fit the data in XLFit excel add-in version 5.4.0.8 to obtain IC50 values.
Equation used is: Y=Bottom+(Top-Bottom)/(1+(IC50/X)^HillSlope)
`COC(=O)c1ccc2[nH]c(-c3cnn4ccc(N5CCC[C@@H]5c5cc(F)ccc5F)nc34)cc2c1` [Compound 184, methyl (R)-2-(5-(2-(2,5-difluorophenyl)pyrrolidin-1-yl)pyrazolo[1,5-a]pyrimidin-3-yl)-1H-indole-5-carboxylate]: the IC50 was at most 10 nM.

`N#Cc1cc2nc(-c3cnn4ccc(N5CCC[C@@H]5c5cc(F)ccc5F)nc34)oc2cc1OC(F)(F)F` [Compound 176, (R)-2-(5-(2-(2,5-difluorophenyl)pyrrolidin-1-yl)pyrazolo[1,5-a]pyrimidin-3-yl)-6-(trifluoromethoxy)benzo[d]oxazole-5-carbonitrile]: the IC50 lay in the range of 10 to 50 nM.

Regarding `C#CC(O)c1nnc(-c2cnn3ccc(N4CCC[C@@H]4c4cc(F)ccc4F)nc23)[nH]1` (stereo partly drawn) [Compound 48, 1-(5-(5-((R)-2-(2,5-difluorophenyl)pyrrolidin-1-yl)pyrazolo[1,5-a]pyrimidin-3-yl)-4H-1,2,4-triazol-3-yl)prop-2-yn-1-ol], the IC50 is at most 10 nM. Still for that read-out and setting: in the case of `COc1cc2nc(-c3c(N)nn4ccc(N5CCC[C@@H]5c5cc(F)ccc5F)nc34)[nH]c2cc1C#N` [Compound 194, (R)-2-(2-amino-5-(2-(2,5-difluorophenyl)pyrrolidin-1-yl)pyrazolo[1,5-a]pyrimidin-3-yl)-5-methoxy-1H-benzo[d]imidazole-6-carbonitrile] it was at most 10 nM.

`Fc1ccc(F)c([C@H]2CCCN2c2ccn3ncc(-c4nc5cc(OC(F)F)c(OC(F)F)cc5[nH]4)c3n2)c1` [Compound 109, (R)-3-(5,6-bis(difluoromethoxy)-1H-benzo[d]imidazol-2-yl)-5-(2-(2,5-difluorophenyl)pyrrolidin-1-yl)pyrazolo[1,5-a]pyrimidine]: the IC50 is at most 10 nM. Regarding `Oc1ccc2cc(-c3cnn4ccc(N5CCC[C@@H]5c5cc(F)ccc5F)nc34)[nH]c2c1` [Compound 186, (R)-2-(5-(2-(2,5-difluorophenyl)pyrrolidin-1-yl)pyrazolo[1,5-a]pyrimidin-3-yl)-1H-indol-6-ol], the IC50 lay within 10 to 50 nM.

`CC(O)c1ccc2nc(-c3cnn4ccc(N5CCC[C@@H]5c5cc(F)ccc5F)nc34)oc2c1` (stereo partly drawn) [Compound 68, 1-(2-(5-((R)-2-(2,5-difluorophenyl)pyrrolidin-1-yl)pyrazolo[1,5-a]pyrimidin-3-yl)benzo[d]oxazol-6-yl)ethan-1-ol]: the IC50 was at most 10 nM.

With `Fc1ccc(F)c([C@H]2CCCN2c2ccn3ncc(-c4nc5cc(O[C@@H]6CCOC6)c(O[C@H]6CCOC6)cc5[nH]4)c3n2)c1` [Compound 118, 5-((R)-2-(2,5-difluorophenyl)pyrrolidin-1-yl)-3-(5-(((R)-tetrahydrofuran-3-yl)oxy)-6-(((S)-tetrahydrofuran-3-yl)oxy)-1H-benzo[d]imidazol-2-yl)pyrazolo[1,5-a]pyrimidine], the IC50 was in the range of 10 to 50 nM.

As to `Fc1ccc(F)c([C@H]2CCCN2c2ccn3ncc(-c4nc5cc(F)c(C(F)(F)F)cc5[nH]4)c3n2)c1` [Compound 139, (R)-5-(2-(2,5-difluorophenyl)pyrrolidin-1-yl)-3-(5-fluoro-6-(trifluoromethyl)-1H-benzo[d]imidazol-2-yl)pyrazolo[1,5-a]pyrimidine], the IC50 was over 50 nM. Same read-out and setting: as for `COc1cc2nc(-c3cnn4ccc(N5CCC[C@@H]5c5cc(F)ccc5F)nc34)[nH]c2cc1C(C)O` (stereo partly drawn) [Compound 66, 1-(2-(5-((R)-2-(2,5-difluorophenyl)pyrrolidin-1-yl)pyrazolo[1,5-a]pyrimidin-3-yl)-5-methoxy-1H-benzo[d]imidazol-6-yl)ethan-1-ol], the figure is at most 10 nM; as for `COc1cc2oc(-c3cnn4ccc(N5CCC[C@@H]5c5cc(F)ccc5F)nc34)nc2cc1C#N` [Compound 174, (R)-2-(5-(2-(2,5-difluorophenyl)pyrrolidin-1-yl)pyrazolo[1,5-a]pyrimidin-3-yl)-6-methoxybenzo[d]oxazole-5-carbonitrile], at most 10 nM. Same read-out and setting: in the case of `Fc1ccc(F)c([C@H]2CCCN2c2ccn3ncc(-c4nc5nc6ccccc6nc5[nH]4)c3n2)c1` [Compound 121, (R)-2-(5-(2-(2,5-difluorophenyl)pyrrolidin-1-yl)pyrazolo[1,5-a]pyrimidin-3-yl)-1H-imidazo[4,5-b]quinoxaline] it was 10 to 50 nM. Still for that read-out and setting: as for `Fc1ccc(F)c([C@H]2CCCN2c2ccn3ncc(-c4nnc(C5CCOCC5)[nH]4)c3n2)c1` [Compound 32, (R)-5-(2-(2,5-difluorophenyl)pyrrolidin-1-yl)-3-(5-(tetrahydro-2H-pyran-4-yl)-4H-1,2,4-triazol-3-yl)pyrazolo[1,5-a]pyrimidine], the figure is 10 to 50 nM; as for `Fc1ccc(F)c([C@H]2CCCN2c2ccn3ncc(-c4nc5ncc(Br)nc5[nH]4)c3n2)c1` [Compound 129, (R)-6-bromo-2-(5-(2-(2,5-difluorophenyl)pyrrolidin-1-yl)pyrazolo[1,5-a]pyrimidin-3-yl)-1H-imidazo[4,5-b]pyrazine], at most 10 nM. In the case of `Fc1ccc(F)c([C@H]2CCCN2c2ccn3ncc(-c4nc5c(s4)COCC5)c3n2)c1` [Compound 192, (R)-2-(5-(2-(2,5-difluorophenyl)pyrrolidin-1-yl)pyrazolo[1,5-a]pyrimidin-3-yl)-6,7-dihydro-4H-pyrano[4,3-d]thiazole], the IC50 lay in the range of 10 to 50 nM. Same read-out and setting: as for `Fc1ccc(F)c([C@H]2CCCN2c2ccn3ncc(-c4nc5ccc(SC(F)(F)F)cc5[nH]4)c3n2)c1` [Compound 116, (R)-5-(2-(2,5-difluorophenyl)pyrrolidin-1-yl)-3-(6-((trifluoromethyl)thio)-1H-benzo[d]imidazol-2-yl)pyrazolo[1,5-a]pyrimidine], the figure is 10 to 50 nM. Still for that read-out and setting: as for `C[C@](O)(c1nnc(-c2cnn3ccc(N4CCC[C@@H]4c4cc(F)ccc4F)nc23)[nH]1)C(F)(F)F` [Compound 25, (S)-2-(5-(5-((R)-2-(2,5-difluorophenyl)pyrrolidin-1-yl)pyrazolo[1,5-a]pyrimidin-3-yl)-4H-1,2,4-triazol-3-yl)-1,1,1-trifluoropropan-2-ol], the figure is 10 to 50 nM.

Staying with this experiment, now noted: numeric values; read-out: Trk A Kinase IC50.
Turning to `Fc1ccc(F)c([C@H]2CCCN2c2ccn3ncc(-c4nc5cc(C(F)(F)F)ncc5[nH]4)c3n2)c1` [Compound 72, (R)-2-(5-(2-(2,5-difluorophenyl)pyrrolidin-1-yl)pyrazolo[1,5-a]pyrimidin-3-yl)-6-(trifluoromethyl)-3H-imidazo[4,5-c]pyridine], the IC50 came to 1.4 nM. As for `Cc1cc2[nH]c(-c3cnn4ccc(N5CCC[C@@H]5c5cc(F)ccc5F)nc34)nc2cn1` [Compound 86, (R)-2-(5-(2-(2,5-difluorophenyl)pyrrolidin-1-yl)pyrazolo[1,5-a]pyrimidin-3-yl)-6-methy1-1H-imidazo[4,5-c]pyridine], the IC50 came to 0.76 nM. Still for that read-out and setting: in the case of `Fc1ccc(F)c([C@H]2CCCN2c2ccn3ncc(-c4nnc(-c5ccc6[nH]ccc6c5)[nH]4)c3n2)c1` [Compound 50, (R)-3-(5-(1H-indol-5-yl)-4H-1,2,4-triazol-3-yl)-5-(2-(2,5-difluorophenyl)pyrrolidin-1-yl)pyrazolo[1,5-a]pyrimidine] it was 2.65 nM; in that of `COc1cc2nc(-c3cnn4ccc(N5CCC[C@@H]5c5cc(F)ccc5F)nc34)[nH]c2cc1C(N)=O` [Compound 91, (R)-2-(5-(2-(2,5-difluorophenyl)pyrrolidin-1-yl)pyrazolo[1,5-a]pyrimidin-3-yl)-5-methoxy-1H-benzo[d]imidazole-6-carboxamide], 0.26 nM. Take `COc1cc2[nH]c(-c3cnn4ccc(N5CCC[C@@H]5c5cc(F)ccc5F)nc34)nc2cn1` [Compound 85, (R)-2-(5-(2-(2,5-difluorophenyl)pyrrolidin-1-yl)pyrazolo[1,5-a]pyrimidin-3-yl)-6-methoxy-1H-imidazo[4,5-c]pyridine]: the IC50 is 0.31 nM.

Consider `Fc1ccc(F)c([C@H]2CCCN2c2ccn3ncc(-c4nc5ccc(C(F)(F)F)nc5[nH]4)c3n2)c1` [Compound 114, (R)-2-(5-(2-(2,5-difluorophenyl)pyrrolidin-1-yl)pyrazolo[1,5-a]pyrimidin-3-yl)-5-(trifluoromethyl)-3H-imidazo[4,5-b]pyridine], for which the IC50 is 3.8 nM. On the same count and under the same terms, as for `Fc1ccc(F)c([C@H]2CCCN2c2ccn3ncc(-c4nc5c(Cl)ccc(Cl)c5[nH]4)c3n2)c1` [Compound 104, (R)-3-(4,7-dichloro-1H-benzo[d]imidazol-2-yl)-5-(2-(2,5-difluorophenyl)pyrrolidin-1-yl)pyrazolo[1,5-a]pyrimidine], the figure is 13.5 nM.
